Experimental data from patent US10004701B2, “Methods and compositions for treating infection” (UNIVERSITY OF ROCHESTER, priority 2012, dated 2018).
Values after ≈ are worked out from the molar mass of the structure shown. Like-named read-outs stand apart in the source and are kept apart here.

How the values were obtained:
[1] = tested on: Enterococcus faecium 824-05; experiment: MIC testing; format: cell-based; conditions: 82405
Staphylococcus aureus = experiment: MIC testing; format: cell-based
[2] = tested on: Klebsiella pneumoniae cKP1; experiment: MIC testing; format: cell-based
[3] = tested on: Acinetobacter baumannii 98-37-09; experiment: MIC testing; format: cell-based; conditions: 983709
[4] = tested on: Pseudomonas aeruginosa PA01; experiment: MIC testing; format: cell-based
[5] = tested on: Enterobacter cloacae PMD1001; experiment: MIC testing; format: cell-based
Escherichia coli 8295 [6] = experiment: MIC testing; format: cell-based
[7] = tested on: Enterococcus faecium 824-05; experiment: AK assay 96-well format; format: cell-based
Escherichia coli 8295 [8] = experiment: AK assay 96-well format; format: cell-based
[9] = tested on: S. aureus SCV strain UAMS-1112; experiment: Small-colony variant AK assay (with plating); format: cell-based, Staphylococcus aureus; conditions: S. aureus UAMS-1112; 1× or 10×MIC for 3 h
Description: Thirty-six-hour cultures of S. aureus strain UAMS-1112 were used to inoculate (1:100 dilution) 100 ml of fresh MH medium and grown at 37° C. on a rotary shaker at 225 rpm to an optical density (600 nm) of 0.1 to 0.2, corresponding to ˜1×10^6 CFU ml^−1. Cells were pelleted by centrifugation and resuspended in 2 ml of fresh MH medium. Ninety-eight microliters of MH medium containing 5×10^6 bacteria and 2 μl of the indicated antibiotic were added to individual wells of a white-walled, 96-well microtiter plate. Well components were mixed by pipetting and incubated at 37° C. for 3 h. The plate was equilibrated to room temperature for 30 min. Next, 100 μl of ToxiLight AK reagent was added to each well, followed by incubation at room temperature for 30 min, and luminescence was measured using a SpectraMax M5 plate reader.
SCV are slow-growing populations of bacterial species that have been hypothesized to cause latent or recurrent infections and are tolerant of standard antibiotic treatment regimens. Based on the aberrant SCV growth characteristics, typical growth-based HTS assays would be difficult to employ. Accordingly, the ability of the AK assay to identify agents that kill S. aureus SCV strain UAMS-1112 was tested. […].

[10] = tested on: Klebsiella pneumoniae cKP1; experiment: AK assay 96-well format; format: cell-based
[11] = tested on: Pseudomonas aeruginosa PA01; experiment: AK assay 96-well format; format: cell-based
[12] = tested on: Enterobacter cloacae PMD1001; experiment: AK assay 96-well format; format: cell-based
E. faecium = experiment: AK assay 384-well format, Prestwick library screening; format: cell-based, Enterococcus faecium; conditions: Enterococcus faecium, 3 h, 50 μM final drug concentration, cutoff for positive-scoring molecules 3-fold increase, read-out: AK-based Prestwick Library Screening Results, E. faecium (increase in extracellular AK activity)
[13] = tested on: S. aureus strain USA300-0114; experiment: as above; format: cell-based, Staphylococcus aureus; conditions: Staphylococcus aureus, USA300, 3 h, 50 μM final drug concentration, cutoff for positive-scoring molecules 3-fold increase, read-out: AK-based Prestwick Library Screening Results, S. aureus (increase in extracellular AK activity)
K. pneumoniae = experiment: as above; format: cell-based, Klebsiella pneumoniae; conditions: Klebsiella pneumoniae, 3 h, 50 μM final drug concentration, cutoff for positive-scoring molecules 3-fold increase, read-out: AK-based Prestwick Library Screening Results, K. pneumoniae (increase in extracellular AK activity)
[14] = tested on: A. baumannii strain 98-37-09; experiment: as above; format: cell-based, Acinetobacter baumannii; conditions: Acinetobacter baumannii, 983709, 3 h, 50 μM final drug concentration, cutoff for positive-scoring molecules 3-fold increase, read-out: AK-based Prestwick Library Screening Results, A. baumannii (increase in extracellular AK activity)
P. aeruginosa = experiment: as above; format: cell-based, Pseudomonas aeruginosa; conditions: for fold induction at 50 µM: Pseudomonas aeruginosa, 3 h, 50 μM final drug concentration, cutoff for positive-scoring molecules 3-fold increase, read-out: AK-based Prestwick Library Screening Results, P. aeruginosa (increase in extracellular AK activity)
E. cloacae = experiment: as above; format: cell-based, Enterobacter cloacae; conditions: Enterobacter cloacae, 3 h, 50 μM final drug concentration, cutoff for positive-scoring molecules 3-fold increase, read-out: AK-based Prestwick Library Screening Results, E. cloacae (increase in extracellular AK activity)
E. coli = experiment: as above; format: cell-based, Escherichia coli; conditions: Escherichia coli, 3 h, 50 μM final drug concentration, cutoff for positive-scoring molecules 3-fold increase, read-out: AK-based Prestwick Library Screening Results, E. coli (increase in extracellular AK activity)
[15] = Staphylococcus aureus USA300-0114, read-out: MIC
[16] = Klebsiella pneumoniae cKP1, read-out: MIC
[17] = Acinetobacter baumannii 98-37-09, read-out: MIC
[18] = Enterococcus faecium 824-05, read-out: MIC

Structure (SMILES)	MIC ([1]; Enterococcus faecium) [µg/mL]	MIC (Staphylococcus aureus; Staphylococcus aureus) [µg/mL]	MIC (Staphylococcus aureus; Staphylococcus aureus, USA300) [µg/mL]	MIC ([2]; Klebsiella pneumoniae, CKP1) [µg/mL]	MIC [4]	MIC [5] [µg/mL]	MIC (Escherichia coli 8295 [6]) [µg/mL]	Fold increase in AK signal ([7]; treatment 0.5×MIC) [fold]	Fold increase in AK signal (Escherichia coli 8295 [8]; treatment 0.5×MIC) [fold]	Fold increase in AK signal (Escherichia coli 8295 [8]; treatment 1.0×MIC) [fold]	MIC (Staphylococcus aureus; [15]) [µg/mL]	MIC [2, 16] [µg/mL]	MIC [3, 17] [µg/mL]	MIC ([4]; read-out: MIC) [µg/mL]	MIC ([5]; read-out: MIC) [µg/mL]	MIC (Escherichia coli 8295 [6]; read-out: MIC) [µg/mL]	Fold increase in AK signal ([10]; treatment 1.0×MIC) [fold]	Fold increase in AK signal ([12]; treatment 0.5×MIC) [fold]	Fold increase in AK signal ([12]; treatment 1.0×MIC) [fold]	MIC [1, 18] [µg/mL]	further results
CN[C@H](CC(C)C)C(=O)N[C@H]1C(=O)N[C@@H](CC(N)=O)C(=O)N[C@H]2C(=O)N[C@H]3C(=O)N[C@H](C(=O)N[C@H](C(=O)O)c4cc(O)cc(O)c4-c4cc3ccc4O)[C@H](O)c3ccc(c(Cl)c3)Oc3cc2cc(c3O[C@@H]2O[C@H](CO)[C@@H](O)[C@H](O)[C@H]2O[C@H]2C[C@](C)(N)[C@H](O)[C@H](C)O2)Oc2ccc(cc2Cl)[C@H]1O [Vancomycin, vancomycin]	2 (≈ 1.38 µM)	2 (≈ 1.38 µM)	1 (≈ 0.69 µM)	> 256	> 256 µg/mL	> 256	16 (≈ 11 µM)	1	1	2											MIC ([3]; Acinetobacter baumannii): 64 µg/mL (≈ 44.2 µM); Fold increase in AK signal ([7]; treatment 1.0×MIC): 2 fold; decrease in SCV viability (plating) [9]: no effect; increase in AK signal compared to mock-treated cells [9]: no change
C[C@@H](O)[C@H]1C(=O)N2C(C(=O)O)=C(S[C@@H]3CN[C@H](C(=O)N(C)C)C3)[C@H](C)[C@H]12 [Meropenem, meropenem]	> 256	2 (≈ 5.22 µM)							60	85	4 (≈ 10.4 µM)	2 (≈ 5.22 µM)	2 (≈ 5.22 µM)	2 (≈ 5.22 µM)	2 (≈ 5.22 µM)	2 (≈ 5.22 µM)	220	99	296		Fold increase in AK signal ([11]; treatment 0.5×MIC): 45 fold; Fold increase in AK signal ([11]; treatment 1.0×MIC): 39 fold; decrease in SCV viability (plating) [9]: 0.5 log; increase in AK signal compared to mock-treated cells [9]: 2.5 fold
CC(=O)NC[C@H]1CN(c2ccc(N3CCOCC3)c(F)c2)C(=O)O1 [Linezolid, linezolid]		2 (≈ 5.93 µM)		> 256	> 256 µg/mL	> 256	> 256	2			2 (≈ 5.93 µM)		256 (≈ 759 µM)							16 (≈ 47.4 µM)	Fold increase in AK signal ([7]; treatment 1.0×MIC): 2 fold
Cc1cc(NS(=O)(=O)c2ccc(N)cc2)no1 [Sulfamethoxazole, sulfamethoxazole]		2 (≈ 7.9 µM)									> 256	> 256	8 (≈ 31.6 µM)	256 (≈ 1010 µM)	> 256	> 256				> 256	fold induction at 50 µM (E. faecium; 384-well format): 1; fold induction at 50 µM ([13]; 384-well format): 0.7; fold induction at 50 µM (K. pneumoniae; 384-well format): 0.6; fold induction at 50 µM ([14]; 384-well format): 1.3; fold induction at 50 µM (P. aeruginosa; 384-well format): 0.7; fold induction at 50 µM (E. cloacae; 384-well format): 0.7; fold induction at 50 µM (E. coli; 384-well format): 0.7
NC[C@H]1O[C@H](O[C@H]2[C@H](O)[C@@H](O[C@H]3O[C@H](CO)[C@@H](O)[C@H](N)[C@H]3O)[C@H](N)C[C@@H]2N)[C@H](O)[C@@H](O)[C@@H]1O [Kanamycin, kanamycin]	> 256	16 (≈ 33 µM)	> 256						55	70		2 (≈ 4.13 µM)	2 (≈ 4.13 µM)	256 (≈ 528 µM)	2 (≈ 4.13 µM)	32 (≈ 66 µM)	1	1	1		Fold increase in AK signal ([10]; treatment 0.5×MIC): 1 fold
CC1(C)S[C@@H]2[C@H](NC(=O)[C@H](N)c3ccccc3)C(=O)N2[C@H]1C(=O)O [Ampicillin, ampicillin]	> 256	2 (≈ 5.72 µM)	> 256	> 256	> 256 µg/mL	> 256	128 (≈ 366 µM)		50	74			256 (≈ 733 µM)								
CCCCCCCCNC(C)C(O)c1ccc(SC(C)C)cc1 (stereo not shown) [Suloctidil, suloctidil, reference compound]					did not elicit an antimicrobial response															8 (≈ 23.7 µM)	fold induction at 50 µM (E. faecium; planktonic E. faecium): 5.4; fold induction at 50 µM ([13]; planktonic S. aureus): 2; fold induction at 50 µM (K. pneumoniae; planktonic K. pneumoniae): 2.5; fold induction at 50 µM ([14]; planktonic A. baumannii): 4.1; activity in primary and confirmatory AK screens (P. aeruginosa; P. aeruginosa, 50 μM, cutoff 3-fold increase in AK): active; fold induction at 50 µM (P. aeruginosa; planktonic P. aeruginosa): 6.8; fold induction at 50 µM (E. cloacae; planktonic E. cloacae): 0.9; fold induction at 50 µM (E. coli; planktonic E. coli): 1.9
CO/N=C(\C(=O)N[C@@H]1C(=O)N2C(C(=O)O)=C(CSc3nc(=O)c(=O)[nH]n3C)CS[C@H]12)c1csc(N)n1 [Ceftriaxone, ceftriaxone]		2 (≈ 3.61 µM)							51	76	> 256	2 (≈ 3.61 µM)	8 (≈ 14.4 µM)	4 (≈ 7.21 µM)	2 (≈ 3.61 µM)	2 (≈ 3.61 µM)	55	20	17	> 256	Fold increase in AK signal ([10]; treatment 0.5×MIC): 50 fold; Fold increase in AK signal ([11]; treatment 0.5×MIC): 2 fold; Fold increase in AK signal ([11]; treatment 1.0×MIC): 14 fold
CN(C)c1ccc(O)c2c1C[C@H]1C[C@H]3[C@H](N(C)C)C(O)=C(C(N)=O)C(=O)[C@@]3(O)C(O)=C1C2=O [Minocycline, minocycline]		8 (≈ 17.5 µM)						3	4	38	1 (≈ 2.19 µM)	64 (≈ 140 µM)	1 (≈ 2.19 µM)	32 (≈ 69.9 µM)	4 (≈ 8.74 µM)	16 (≈ 35 µM)	1	4	9	1 (≈ 2.19 µM)	Fold increase in AK signal ([7]; treatment 1.0×MIC): 4 fold; Fold increase in AK signal ([10]; treatment 0.5×MIC): 1 fold; Fold increase in AK signal ([11]; treatment 0.5×MIC): 1 fold; Fold increase in AK signal ([11]; treatment 1.0×MIC): 6 fold
